Like-named read-outs stand apart in the source and are kept apart here.
Legend:
[1] = test system: striatal dopamine receptors; experiment: Antagonism of amphetamine-induced rotation in rats with unilateral substantia nigra lesions (Ungerstedt); assay type: in vivo, rat; conditions: i.p.
Text: There is evidence that antipsychotic drugs cause EPS by interfering with neurotransmission in a nigrostriatal dopaminergic pathway. It is thought that they block dopamine receptors in the neostriatum. Therefore, the ability of a drug to block striatal dopamine receptors is a measure of its EPS liability.
To assess the potency of drugs in blocking striatal dopamine receptors a procedure was used which was developed by Ungerstedt [Ungerstedt and Arbuthnott, Brain Res. 24 485 (1970); Ungerstedt, Acta physiol. scand., Suppl. 367, 49 (1971)] using rats with unilateral lesions of the substantia nigra induced by injection of 6-hydroxydopamine. This treatment causes degeneration of the nigrostriatal dopaminergic pathway accompanied by a marked decrease in the dopamine content of the neostriatum on the side of the lesion. Animals with this lesion develop postural and motor asymmetries which are altered by drugs which affect dopaminergic activity. Amphetamine, which releases dopmine and norepinephrine from catecholaminergic neurons, causes these rats to rotate unidirectionally toward the side of the lesion. Since there is a much larger amount of dopamine to be released by amphetamine from the intact nigrostriatal neurons on the non-lesioned side than from those remaining on the lesioned side, the rotational behavior is apparently due to the preponderance of activation of striatal dopamine receptors on the intact side. The ability of a drug to antagonize the rotational behavior is therefore a measure of its ability to block striatal dopamine receptors and is indicative of its potential to produce EPS.
(§1) To predict the potential ability of a drug to cause EPS, the ratio of its ED50 (i.p.) for antagonism of amphetamine-induced rotation to its ED50 (i.p.) for blockade of shock avoidance acquisition in the rat, a procedure for assessing antipsychotic activity, (R/A ratio) is calculated.

[2] = test system: amphetamine-induced rotation vs. avoidance acquisition; experiment: R/A ratio: ED50 amphetamine-induced rotation / ED50 avoidance acquisition; assay type: in vivo, rat
Procedure: as §1

[3] = test system: shock avoidance acquisition in the rat; experiment: Antagonism of shock avoidance acquisition in the rat (antipsychotic activity); assay type: in vivo; conditions: ip, read-out: Antagonism of Avoidance Acquisition, Rats, ED50 (A)
Procedure: as §1

[4] = clinically established antipsychotics (Table I)
[5] = ratio of i.p. ED50 values in rats, clinically established antipsychotics (Table I)
[6] = piperidylidene derivatives (Table II)
[7] = ratio of i.p. ED50 values in rats, piperidylidene derivatives (Table II)
[8] = rats, i.p., piperidylidene derivatives (Table II)

| Structure (SMILES) | Antagonism of Amphetamine-induced Rotation, Rats, ED50 (R) [1, 4] [mg/kg] | R/A ratio [2, 5] | Antagonism of Amphetamine-induced Rotation, Rats, ED50 (R) [1, 6] [mg/kg] | R/A ratio [2, 7] | ED50 [3] [mg/kg] | ED50 [3, 8] [mg/kg] | R/A ratio ([2]; rat, in vivo, ip) |
| --- | --- | --- | --- | --- | --- | --- | --- |
| CN(C)CCCN1c2ccccc2Sc2ccc(Cl)cc21 [Chlorpromazine, reference compound] | 2.0 | 1.3 | – | – | – | – | – |
| O=C(CCCN1CCC(O)(c2ccc(Cl)cc2)CC1)c1ccc(F)cc1 [Haloperidol, reference compound] | 0.05 | 0.31 | – | – | – | – | – |
| CN1CCC(=C2c3ccccc3Sc3ccc(Cl)cc32)CC1 [I, 4-(2-chloro-9-thioxanthenylidene)-1-methylpiperidine] | – | – | 14.2 | 20.3 | 0.7 | – | – |
| CSc1ccc2c(c1)C(=C1CCN(C)CC1)c1ccccc1S2 [II, 1-methyl-4-(2-methylthio-9-thioxanthenylidene)-piperidine] | – | – | 3.7 | 18.5 | 0.2 | – | – |
| CN1CCC(=C2c3ccccc3Sc3cc(Cl)ccc32)CC1 [III, 4-(3-chloro-9-thioxanthenylidene)-1-methylpiperidine] | – | – | 30.8 | 5.8 | – | 5.3 | – |
| CN1CCC(=C2c3ccccc3Oc3ccc(Cl)cc32)CC1 [IV, 4-(2-chloro-9-xanthenylidene)-1-methylpiperidine] | – | – | 2.8 | 12.2 | – | 0.23 | – |
| OCCN1CCC(=C2c3ccccc3Sc3ccc(Cl)cc32)CC1 [IX, 4-(2-chloro-9-thioxanthenylidene)-1-(β-hydroxyethyl)piperidine] | – | – | 1.22 | 4.7 | – | 0.26 | – |
| O=c1[nH]c2ccccc2n1C1CCN(CCCC(c2ccc(F)cc2)c2ccc(F)cc2)CC1 [Pimozide, reference compound] | 0.08 | 0.30 | – | – | – | – | – |
| CN1CCN(CCCN2c3ccccc3Sc3ccc(C(F)(F)F)cc32)CC1 [Trifluoperazine, reference compound] | – | 0.46 | – | – | – | – | – |
| CSc1ccc2c(c1)C(=C1CCN(C)CC1)c1ccccc1O2 [V, 1-methyl-4-(2-methylthio-9-xanthenylidene)piperidine] | – | – | 1.8 | 3.0 | – | 0.6 | – |
| CN1CCC(=C2c3ccccc3Oc3ccc(C(F)(F)F)cc32)CC1 [VI, 1-methyl-4-(2-trifluoromethyl-9-xanthenylidene)-piperidine] | – | – | 0.26 | 3.7 | – | 0.07 | – |
| CN1CCC(=C2c3ccccc3COc3ccc(Cl)cc32)CC1 [VII, 4-(2-chloro-11(6H)-dibenz[b,e]oxepinylidene)-1-methylpiperidine] | – | – | 9.4 | 5.5 | – | 1.7 | – |
| CN1CCC(=C2c3ccccc3Oc3ccc(F)cc32)CC1 [VIII, 4-(2-fluoro-9-xanthenylidene)-1-methylpiperidine] | – | – | 5.6 | 7.9 | – | 0.71 | – |
| CN1CCC(=C2c3ccccc3Oc3ccc(Br)cc32)CC1 [X, 4-(2-bromo-9-xanthenylidene)-1-methylpiperidine] | – | – | 1.6 | 5.3 | – | 0.3 | – |
| CN1CCC(=C2c3ccccc3Oc3ccc(C#N)cc32)CC1 [XI, 4-(2-cyano-9-xanthenylidene)-1-methylpiperidine] | – | – | 0.29 | 3.2 | – | 0.09 | – |
| CN1CCC(=C2c3ccccc3Sc3ccc(F)cc32)CC1 [XII, 4-(2-fluoro-9-thioxanthenylidene)-1-methylpiperidine] | – | – | 5.5 | 3.1 | – | 1.8 | – |
| CN1CCC(=C2c3ccccc3Sc3cc(F)ccc32)CC1 [XIII, 4-(3-fluoro-9-thioxanthenylidene)-1-methylpiperidine] | – | – | 17.7 | 5.8 | – | 3 | – |
| CN1CCC(=C2c3ccccc3Sc3ccc(Br)cc32)CC1 [XIV, 4-(2-bromo-9-thioxanthenylidene)-1-methylpiperidine] | – | – | 2.7 | 9.0 | – | 0.3 | – |

| Structure (SMILES) | Antagonism of Amphetamine-induced Rotation, Rats, ED50 (R) [1, 4] [mg/kg] | R/A ratio [2, 5] | Antagonism of Amphetamine-induced Rotation, Rats, ED50 (R) [1, 6] [mg/kg] | R/A ratio [2, 7] | ED50 [3] [mg/kg] | ED50 [3, 8] [mg/kg] | R/A ratio ([2]; rat, in vivo, ip) |
| --- | --- | --- | --- | --- | --- | --- | --- |
| Clc1ccc2c(c1)C(=C1CCN(CC3CCC3)CC1)c1ccccc1S2 [XIX, 4-(2-chloro-9-thioxanthenylidene)-1-cyclobutylmethylpiperidine] | – | – | 1.9 | – | – | 0.5 | 3.8 |
| CN1CCC(=C2c3ccc(Cl)cc3Sc3ccc(F)cc32)CC1 [XV, 4-(6-chloro-2-fluoro-9-thioxanthenylidene)-1-methylpiperidine] | – | – | 8.7 | 14.5 | – | 0.6 | – |
| CN1CCC(=C2c3ccc(Cl)cc3Oc3ccc(F)cc32)CC1 [XVI, 4-(6-chloro-2-fluoro-9-xanthenylidene)-1-methylpiperidine] | – | – | 1.12 | 7.5 | – | 0.15 | – |
| CCN1CCC(=C2c3ccccc3Sc3ccc(Cl)cc32)CC1 [XVII, 4-(2-chloro-9-thioxanthenylidene)-1-ethylpiperidine] | – | – | 5.0 | 10.0 | – | 0.5 | – |
| CCCCN1CCC(=C2c3ccccc3Sc3ccc(Cl)cc32)CC1 [XVIII, 4-(2-chloro-9-thioxanthenylidene)-1-n-butylpiperidine] | – | – | 3.1 | 3.3 | – | 0.94 | – |
| Clc1ccc2c(c1)C(=C1CCNCC1)c1ccccc1O2 [XX, 4-(2-chloro-9-xanthenylidene)-piperidine] | – | – | 8.1 | 4.8 | – | 1.7 | – |
| CCN1CCC(=C2c3ccccc3Oc3ccc(Cl)cc32)CC1 [XXI, 4-(2-chloro-9-xanthenylidene)-1-ethylpiperidine] | – | – | 1.8 | 3.6 | – | 0.5 | – |
| OCCN1CCC(=C2c3ccccc3Oc3ccc(Cl)cc32)CC1 [XXII, 4-(2-chloro-9-xanthenylidene)-1-(β-hydroxyethyl)-piperidine] | – | – | 1.3 | 6.5 | – | 0.2 | – |
| CCCN1CCC(=C2c3ccccc3Oc3ccc(Cl)cc32)CC1 [XXIII, 4-(2-chloro-9-xanthenylidene)-1-n-propylpiperidine] | – | – | 2.4 | 4.0 | – | 0.6 | – |
| Clc1ccc2c(c1)C(=C1CCN(CC3CCC3)CC1)c1ccccc1O2 [XXIV, 4-(2-chloro-9-xanthenylidene)-1-cyclobutylmethylpiperidine] | – | – | 1.6 | 3.2 | – | 0.5 | – |
| CN1CCC(=C2c3ccc(F)cc3Sc3ccc(F)cc32)CC1 [XXIX, 4-(2,6-difluoro-9-thioxanthenylidene)-1-methylpiperidine] | – | – | 2.4 | 4.8 | – | 0.5 | – |
| Brc1ccc2c(c1)C(=C1CCNCC1)c1ccccc1O2 [XXV, 4-(2-bromo-9-xanthenylidene)-piperidine] | – | – | 4.0 | 6.7 | – | 0.6 | – |
| OCCN1CCC(=C2c3ccccc3Oc3ccc(Br)cc32)CC1 [XXVI, 4-(2-bromo-9-xanthenylidene)-1-(β-hydroxyethyl)-piperidine] | – | – | 2.1 | 3.5 | – | 0.6 | – |
| CN1CCC(=C2c3cc(Cl)ccc3COc3ccccc32)CC1 [XXVII, 4-(9-chloro-11(6H)-dibenz[b,e]oxepinylidene)-1-methylpiperidine] | – | – | > 24 | > 15 | – | 1.6 | – |
| CN1CCC(=C2c3ccccc3Sc3ccc(C#N)cc32)CC1 [XXVIII, 4-(2-cyano-9-thioxanthenylidene)-1-methylpiperidine] | – | – | 0.67 | 4.0 | – | 0.16 | – |
| OCCCN1CCC(=C2c3ccccc3Oc3ccc(Cl)cc32)CC1 [XXX, 4-(2-chloro-9-xanthenylidene)-1-(3-hydroxypropyl)-piperidine] | – | – | 0.78 | 3.9 | – | 0.2 | – |
| CCCCN1CCC(=C2c3ccccc3Oc3ccc(C(F)(F)F)cc32)CC1 [XXXI, 4-(2-trifluoromethyl-9-xanthenylidene)-1-n-butylpiperidine] | – | – | 1 | 10 | – | 0.1 | – |
